Key:
[1] = system: HL-60; assay: Cytotoxicity against human HL60 cells assessed as reduction in cell viability after 48 hrs by WST-8 assay; format: functional, cell-based; details: HL-60, 48 h
[2] = system: HL-60; assay: Cytotoxicity against human HL60 cells assessed as reduction in cell viability after 48 hrs by WST-8 assay relative to control; format: functional
[3] = system: HeLa; assay: Cytotoxicity against human HeLa cells assessed as reduction in cell viability after 48 hrs by WST-8 assay; format: functional, cell-based

Structure (SMILES) | EC50 [1] | inhibition (INH) [2] | EC50 [3]
O=C1OC[C@H](Cc2ccccc2)[C@H]1Cc1cccc(O)c1 | > 100 µM | 45% | 
Cc1cccc(C[C@H]2C(=O)OC[C@@H]2Cc2ccccc2)c1 | 53 µM |  | 
Oc1ccccc1C[C@H]1COC[C@@H]1Cc1ccc(Cl)c(Cl)c1 | 34 µM |  | 
CCCCOc1ccccc1C[C@H]1COC[C@@H]1Cc1ccc(Cl)c(Cl)c1 | 20 µM |  | 
Cc1ccccc1C[C@H]1COC(=O)[C@@H]1Cc1ccc(Cl)c(Cl)c1 | 22 µM |  | 
O=C1OC[C@H](Cc2ccccc2)[C@H]1Cc1ccccc1F | 72 µM |  | 
Cc1ccc(C[C@H]2C(=O)OC[C@@H]2Cc2ccccc2)cc1 | 44 µM |  | 
Oc1cccc(C[C@H]2COC[C@@H]2Cc2ccc(Cl)c(Cl)c2)c1 | 31 µM |  | 
Clc1ccc(C[C@H]2COC[C@@H]2Cc2ccc3c(c2)OCCO3)cc1Cl | 38 µM |  | 
CCCCOc1ccc(C[C@H]2C(=O)OC[C@@H]2Cc2ccccc2)cc1OCCCC | > 100 µM | 29% | 
Cc1ccc(C[C@H]2COC(=O)[C@@H]2Cc2ccc(Cl)c(Cl)c2)cc1C | 16 µM |  | 
COc1ccc(C[C@H]2COC(=O)[C@@H]2Cc2ccc(Cl)c(Cl)c2)cc1OC | 24 µM |  | 
CCCCCCCOc1ccccc1C[C@H]1C(=O)OC[C@@H]1Cc1ccccc1 | 75 µM |  | 
CCCCOc1cc(C[C@H]2C(=O)OC[C@@H]2Cc2ccccc2)ccc1O | 35 µM |  | 
CCCCCCCOc1cccc(C[C@H]2C(=O)OC[C@@H]2Cc2ccccc2)c1 | 81 µM |  | 
COc1ccc(C[C@H]2COC[C@@H]2Cc2ccc(Cl)c(Cl)c2)cc1O | 33 µM |  | 
Cc1ccc(C[C@H]2COC[C@@H]2Cc2ccc(Cl)c(Cl)c2)cc1 | 21 µM |  | 
COc1ccc(C[C@H]2COC(=O)[C@@H]2Cc2ccc(Cl)c(Cl)c2)cc1 | 37 µM |  | 
CCCCOc1ccc(/C=C2\C(=O)OC[C@@H]2Cc2ccccc2)cc1 | 58 µM |  | 
O=C1OC[C@H](Cc2ccccc2)[C@H]1Cc1cccc(F)c1 | 75 µM |  | 
COc1cccc(C[C@H]2C(=O)OC[C@@H]2Cc2ccccc2)c1 | 66 µM |  | 
COc1ccc(C[C@H]2C(=O)OC[C@@H]2Cc2ccccc2)cc1 | 67 µM |  | 
Clc1ccc(C[C@H]2COC[C@@H]2Cc2ccc(Cl)c(Cl)c2)cc1Cl | 16 µM |  | 
CCCCOc1ccc(C[C@H]2C(=O)OC[C@@H]2Cc2ccccc2)cc1 | 23 µM |  | 27 µM
Cc1ccccc1C[C@H]1COC[C@@H]1Cc1ccc(Cl)c(Cl)c1 | 21 µM |  | 

Structure (SMILES) | EC50 [1] | inhibition (INH) [2] | EC50 [3]
Clc1ccc(C[C@H]2COC[C@@H]2Cc2ccc3c(c2)OCO3)cc1Cl | 22 µM |  | 
O=C1OC[C@H](Cc2ccccc2)[C@H]1Cc1cc(Cl)cc(Cl)c1 | 23 µM |  | 17 µM
COc1ccc(C[C@H]2COC[C@@H]2Cc2ccc(Cl)c(Cl)c2)cc1 | 39 µM |  | 
Cc1ccccc1C[C@H]1C(=O)OC[C@@H]1Cc1ccccc1 | 57 µM |  | 
CCCCOc1ccccc1C[C@H]1C(=O)OC[C@@H]1Cc1ccccc1 | 20 µM |  | 
O=C1OC[C@H](Cc2ccc(F)cc2)[C@H]1Cc1ccc(Cl)c(Cl)c1 | 14 µM |  | 19 µM
COc1cc(C[C@H]2COC(=O)[C@@H]2Cc2ccc(Cl)c(Cl)c2)ccc1O | 36 µM |  | 
O=C1OC[C@H](Cc2ccccc2)[C@H]1Cc1ccccc1C(F)(F)F | 37 µM |  | 
O=C1OC[C@H](Cc2ccccc2)[C@H]1Cc1ccc(Cl)cc1 | 36 µM |  | 
O=C1OC[C@H](Cc2ccccc2)[C@H]1Cc1ccc2c(c1)OCO2 | 57 µM |  | 
Fc1ccc(C[C@H]2COC[C@@H]2Cc2ccc(Cl)c(Cl)c2)cc1 | 43 µM |  | 
CCCCc1ccc(C[C@H]2COC(=O)[C@@H]2Cc2ccc(Cl)c(Cl)c2)cc1 | 9.4 µM |  | 27 µM
O=C1OC[C@H](Cc2ccccc2)[C@H]1Cc1ccccc1O | 83 µM |  | 
COc1cccc(C[C@H]2COC(=O)[C@@H]2Cc2ccc(Cl)c(Cl)c2)c1 | 34 µM |  | 
O=C1OC[C@H](Cc2ccccc2)[C@H]1Cc1ccc(F)cc1 | 57 µM |  | 
O=C1OC[C@H](Cc2cccc(O)c2)[C@H]1Cc1ccc(Cl)c(Cl)c1 | 48 µM |  | 
CCCCOc1ccc(C[C@H]2COC[C@@H]2Cc2ccccc2)cc1 | 11 µM |  | 
CCc1ccc(C[C@H]2COC(=O)[C@@H]2Cc2ccc(Cl)c(Cl)c2)cc1 | 16 µM |  | 
Cc1ccc(C[C@H]2COC[C@@H]2Cc2ccc(Cl)c(Cl)c2)cc1C | 36 µM |  | 
C[C@H](Cc1ccccc1)[C@H](C)Cc1ccc(Cl)c(Cl)c1 | 19 µM |  | 
O=C1OC[C@H](Cc2ccccc2)[C@H]1Cc1cccc(OC(F)(F)F)c1 | 34 µM |  | 
O=C1OC[C@H](Cc2ccccc2O)[C@H]1Cc1ccc(Cl)c(Cl)c1 | 33 µM |  | 
Cc1cccc(C[C@H]2COC(=O)[C@@H]2Cc2ccc(Cl)c(Cl)c2)c1 | 22 µM |  | 
O=C1OC[C@H](Cc2ccccc2)[C@H]1Cc1ccc(OC(F)(F)F)cc1 | 27 µM |  | 
CCOc1ccccc1C[C@H]1COC[C@@H]1Cc1ccc(Cl)c(Cl)c1 | 29 µM |  | 

Structure (SMILES) | EC50 [1] | inhibition (INH) [2] | EC50 [3]
O=C1OC[C@H](Cc2ccccc2F)[C@H]1Cc1ccc(Cl)c(Cl)c1 | 28 µM |  | 
O=C1OC[C@H](Cc2ccccc2)[C@H]1Cc1ccc(Cl)c(Cl)c1 | 19 µM |  | 26 µM
Fc1cccc(C[C@H]2COC[C@@H]2Cc2ccc(Cl)c(Cl)c2)c1 | 20 µM |  | 
O=C1OC[C@H](Cc2ccccc2)[C@H]1Cc1ccccc1 | 77 µM |  | 
O=C1OC[C@H](Cc2ccc(Cl)c(Cl)c2)[C@H]1Cc1ccc(Cl)c(Cl)c1 | 20 µM |  | 
O=C1OC[C@H](Cc2ccccc2)[C@H]1Cc1ccccc1Cl | 37 µM |  | 
O=C1OC[C@H](Cc2ccccc2)[C@H]1Cc1ccc(C(F)(F)F)cc1 | 22 µM |  | 29 µM
CCCCc1ccc(C[C@H]2COC[C@@H]2Cc2ccc(Cl)c(Cl)c2)cc1 | 23 µM |  | 
O=C1OC[C@H](Cc2ccccc2)[C@H]1Cc1ccccc1OC(F)(F)F | 39 µM |  | 
COc1ccc(C[C@H]2C(=O)OC[C@@H]2Cc2ccccc2)cc1OC | > 100 µM | 38% | 
O=C1OC[C@H](Cc2ccc3c(c2)OCO3)[C@H]1Cc1ccc(Cl)c(Cl)c1 | 51 µM |  | 
COc1ccccc1C[C@H]1C(=O)OC[C@@H]1Cc1ccccc1 | 79 µM |  | 
CCCCOc1cccc(C[C@H]2C(=O)OC[C@@H]2Cc2ccccc2)c1 | 26 µM |  | 
CCOc1ccccc1C[C@H]1COC(=O)[C@@H]1Cc1ccc(Cl)c(Cl)c1 | 15 µM |  | 31 µM
O=C1OC[C@H](Cc2ccccc2)[C@H]1Cc1cccc(C(F)(F)F)c1 | 34 µM |  | 
COc1cc(C[C@H]2COC[C@@H]2Cc2ccc(Cl)c(Cl)c2)ccc1O | 21 µM |  | 
O=C1OC[C@H](Cc2ccc(O)cc2)[C@H]1Cc1ccc(Cl)c(Cl)c1 | 37 µM |  | 
O=C1OC[C@H](Cc2ccccc2)[C@H]1Cc1ccc(O)cc1 | 88 µM |  | 
COc1cccc(C[C@H]2COC[C@@H]2Cc2ccc(Cl)c(Cl)c2)c1 | 73 µM |  | 
COc1cc(C[C@@H]2COC(=O)[C@H]2Cc2ccc(O)c(OC)c2)ccc1O | > 100 µM |  | > 100 µM
O=C1OC[C@H](Cc2ccc3c(c2)OCCO3)[C@H]1Cc1ccc(Cl)c(Cl)c1 | 28 µM |  | 
CCCCCCCOc1ccc(C[C@H]2C(=O)OC[C@@H]2Cc2ccccc2)cc1 | > 100 µM | 17% | 
O=C1OC[C@H](Cc2ccccc2)[C@H]1Cc1ccc(Cl)cc1Cl | 19 µM |  | 23 µM
COc1cc(C[C@H]2C(=O)OC[C@@H]2Cc2ccccc2)ccc1O | 93 µM |  | 
Oc1ccc(C[C@H]2COC[C@@H]2Cc2ccc(Cl)c(Cl)c2)cc1 | 31 µM |  | 

Structure (SMILES) | EC50 [1] | inhibition (INH) [2] | EC50 [3]
COc1ccc(C[C@H]2COC(=O)[C@@H]2Cc2ccc(Cl)c(Cl)c2)cc1O | 32 µM |  | 
Clc1ccc(C[C@H]2COC[C@@H]2Cc2ccccc2)cc1Cl | 19 µM |  | 
O=C1OC[C@H](Cc2ccccc2)[C@H]1Cc1cccc(Cl)c1 | 36 µM |  | 
COc1cc(C[C@H]2C(=O)OC[C@@H]2Cc2ccccc2)cc(OC)c1OC | > 100 µM | 44% | 
Cc1ccc(C[C@H]2COC(=O)[C@@H]2Cc2ccc(Cl)c(Cl)c2)cc1 | 19 µM |  | 
COc1ccccc1C[C@H]1COC[C@@H]1Cc1ccc(Cl)c(Cl)c1 | 55 µM |  | 
Fc1ccc(C[C@H]2COC[C@@H]2Cc2ccc(Cl)c(Cl)c2)cc1F | 18 µM |  | 
COc1ccc(C[C@H]2COC[C@@H]2Cc2ccc(Cl)c(Cl)c2)cc1OC | 16 µM |  | 
COc1ccccc1C[C@H]1COC(=O)[C@@H]1Cc1ccc(Cl)c(Cl)c1 | 14 µM |  | 24 µM
Fc1ccccc1C[C@H]1COC[C@@H]1Cc1ccc(Cl)c(Cl)c1 | 51 µM |  | 
COCOc1ccc(C[C@H]2C(=O)OC[C@@H]2Cc2ccccc2)cc1 | 71 µM |  | 
O=C1OC[C@H](Cc2ccccc2)[C@H]1Cc1ccc(F)c(F)c1 | 50 µM |  | 
Cc1cccc(C[C@H]2COC[C@@H]2Cc2ccc(Cl)c(Cl)c2)c1 | 28 µM |  | 
Cc1ccc(C[C@H]2C(=O)OC[C@@H]2Cc2ccccc2)cc1C | 35 µM |  | 
O=C1OC[C@H](Cc2ccc(F)c(F)c2)[C@H]1Cc1ccc(Cl)c(Cl)c1 | 25 µM |  | 
COCOc1ccccc1C[C@H]1C(=O)OC[C@@H]1Cc1ccccc1 | 76 µM |  | 
CCCCOc1ccc(/C=C2/C(=O)OC[C@@H]2Cc2ccccc2)cc1 | > 100 µM | 36% | 
COCOc1cccc(C[C@H]2C(=O)OC[C@@H]2Cc2ccccc2)c1 | 80 µM |  | 
CCc1ccc(C[C@H]2COC[C@@H]2Cc2ccc(Cl)c(Cl)c2)cc1 | 26 µM |  | 
O=C1OC[C@H](Cc2cccc(F)c2)[C@H]1Cc1ccc(Cl)c(Cl)c1 | 14 µM |  | 20 µM
CCCCOc1ccccc1C[C@H]1COC(=O)[C@@H]1Cc1ccc(Cl)c(Cl)c1 | 10 µM |  | > 100 µM
COc1cc(C[C@@H](C)[C@H](C)Cc2ccc(O)c(OC)c2)ccc1O [(-)-DIHYDROGUAIARETICACID] | 26 µM |  | 22 µM
COc1cc(C[C@H]2C(=O)OC[C@@H]2Cc2ccc(OC)c(OC)c2)ccc1O [ARCTIGENIN] | 12 µM |  | > 100 µM
COc1cc(C[C@H]2COC(=O)[C@@H]2Cc2ccc(O)c(OC)c2)ccc1O [MATAIRESINOL] | 74 µM |  | > 100 µM
